Where two headings read alike, the source gives them in different places. Starred links: 1 amine or outer side, 2 acyl side, 3 side chain; linkers in the order of their positions; H or OH if unused. Residues, ends and D or L forms follow the SMILES beside them. *: point of attachment. AFC = O=c1cc(C(F)(F)F)c2ccc(N*)cc2o1; Suc = O=C(CCC(=O)[*:2])[*:1]; Cbz = O=C(OCc1ccccc1)*
Assays:
[1] = system: T solium purified cysteine protease; assay: Human IgG degradation assay (western blot; Step IV); assay type: biochemical, Taenia solium; settings: 18 hrs, 37° C.
Experimental: FIG.6. IgG degradation of heavy chain by purified cysteine protease of Taenia solium. human IgG was incubated for 18 hours with T. solium purified cysteine protease (CP). Incubated tubes were subsequently fractionated by SDS-PAGE under reducing conditions, blotted onto PVDF membrane, and visualized using biotinylated anti-IgG (heavy chain/light chain), biotin-peroxidase conjugated-strepavidin complex and enhanced chemiluminescence. Bands represent heavy chains.
To conduct this assessment, a western blot was performed. IgG digestion was detected by incubating 20 μl of T solium purified enzyme or T solium extract with 1 μg of human IgG (Sigma, St. Louis) in a fmal volume of 100 μl of assay buffer. Exogenous thiol activation was assessed by incubating the assay in the presence or absence of cysteine. The catalytic class of the IgG protease was determined by pre-incubating the following proteinase inhibitors at their active concentrations, with the enzyme: E 64 (10^−6 M, cysteine proteinases), phenylmethylsulfonyl fluoride (PMSF) (10^−3 M, serine proteinases), pepstatin A (10^−6 M, aspartic proteinases), and 1,10 phenanthroline (10^−3 M, metalloproteinases), and the vehicle, Mu-Leu-Tyr-AFC (10^−3 M). After addition of IgG, the assay was incubated overnight (37° C., 18 hrs). […]

[2] = system: purified Taenia solium cysteine protease; assay: Screen of AFC-linked synthetic substrates for cleavage (Step II); assay type: biochemical; settings: pH 4.9, 18 h, 37° C
Experimental: In this step, the most efficacious substrate for detection of the cysteine protease (high Kcat substrate) was determined in vitro along with those substrates which were not well cleaved (low kcat substrates). From this point forth, the following conditions refer to all assays: “assay buffer” refers to 0.4 M Citrate, pH 4.9 (the pH optima of the protease). Incubation time was 18 hours at 37° C. These conditions were determined by our preliminary data to be best for kinetic evaluation of the protease. […] The experiments were conducted in […] Borosilicate mini-culture tubes (Fisher Scientific), and a fluorometer (Turner) was employed for detection of AFC cleavage.
Approximately 1 ug (or a proteolytically detectable amount) of the purified target cysteine protease was incubated individually, with 1 μg of each of the available substrates in 500 μL of assay buffer. During this setup, the substrate was pre-incubated in the assay buffer for a short period of time (20 minutes) in order to reach an equilibrated status before the addition of the protease. Cleavage assessments were based upon the property of the protease to cleave synthetic peptide substrates linked at the C-terminus to 7-Amino-4-Trifluoromethyl Coumarin (AFC) as previously described. AFC linked tripeptides, dipeptides, and monopeptides, (with a variety of permutations at P3-P1) were available from Enzyme Systems Products (Livermore, CA), and were used as the source of the subset. Following incubation of enzyme preparations overnight (18 h, 37 ° C.) with peptide in assay buffer (Citrate, pH 4.9, supplemented with 0.01 M cysteine), free AFC concentrations were measured fluorometrically (excitation […]). The proteolytic cleavage released the AFC group, which was measurable as a free molecule by a standard fluorometer and converted into molar quantities, based upon a previously established standard curve. The simplicity of AFC detection by the fluorometer was a key factor which quickened and simplified the procedures.
In the assay, 1 ug of the purified Taenia cysteine protease was added to a saturating amount of Z-Phe-Arg-AFC (4×10^−5 M) in assay buffer. The experiment was conducted in triplicate and repeated at least 5 times until we were certain that variability in AFC cleavage was not statistically significant.
Vmax was calculated for the cleavage of substrates by the purified target protease and Vmax was calculated for substrates cleaved by the crude mix protease using conventional kinetic modeling calculations already described in the art.

Cathepsin B = Cathepsin B (Homo sapiens, UniProt P07858); assay: Differential cleavage (selectivity) test; assay type: biochemical; settings: vehicle 4×10^−5 M; pH 6.1, Z-ARR-AFC
Experimental: (§1) In order to perform the assay, the vehicle (for Step VI) or inhibitor (for Step IX) were incubated with the appropriate substrate in the correct assay buffer and allowed to equilibrate. Subsequently, the protease was added, and the assay was allowed to incubate for an appropriate time. The concentrations used in this experiment were as follows: Vehicle was set up at 4×10^−5 M in final assay buffer; Inhibitor was set up at 3×10^−10 M in the final assay buffer. Accordingly, the dosages employed should be the minimal amount of vehicle or inhibitor necessary to induce inhibition. […] Substrates were set up based upon the preferred substrate for cleavage of the particular enzyme.
(§2) Positive controls were set up similarly as described for test controls, except that solvent was added in substitution for the inhibitor or vehicle (in a volume equal to the volume of inhibitor or vehicle addition). All of the inhibitors and vehicles could be dissolved in dimethylsulfoxide (DMSO), and therefore, this was the solvent of choice. Negative controls were set up by adding the inhibitor or vehicle and the preferred substrates in a tube without the protease. All potential non-proteolytic liberation of AFC was therefore controlled for in this tube (a feature which also insured stability of the AFC substrates, since these substrates will freely liberate AFC when unstable).
(§3) All controls were set up in triplicate, and experiments were repeated a minimum of five times.
(§4) Percent inhibition was calculated as: [formula]
(§5) In this preliminary test, we employed the following human-derived enzymes (with indicated mechanistic class): Cathepsin B (cysteine), Cathepsin L (cysteine), Cathepsin H (cysteine), Cathepsin D (aspartic) Trypsin (serine), the purified Taenia solium cysteine protease, and the Taenia solium crude mix. Cathepsin B was prepared in an assay buffer of 10 mM L-cysteine in 0.4 M Citrate buffer, pH 6. 1, using Z-ARR-AFC as the cleavage substrate. Cathepsin L was prepared in an assay buffer of 10 mM L-cysteine in 0.4 M Citrate buffer, pH 5.5, using Z-FR-AFC as the cleavage substrate. Cathepsin H was prepared in an assay buffer of 10 mM L-cysteine in 0.15 M PBS buffer, pH 6.8, using L- R-AFC as the cleavage substrate. Cathepsin D was prepared in an assay buffer of 0.15 M PBS, pH 7.1, using Z-RGFFP-AFC as the cleavage substrate. Trypsin was prepared in an assay buffer of 0.15 M PBS, pH 8.0, supplemented with 100 mM CaCl2 and with Z-R-AFC as the cleavage substrate. Enzyme was incubated so that it was at least 50 times less than the concentration of substrate in order to insure saturating conditions.

Cathepsin D = Cathepsin D (Homo sapiens, UniProt P07339); assay: Differential cleavage (selectivity) test; assay type: biochemical; settings: vehicle 4×10^−5 M; pH 7.1, Z-RGFFP-AFC
Experimental: as §1, §2, §3, §4, §5

Cathepsin L = Cathepsin L (Homo sapiens, UniProt P07711); assay: Differential cleavage (selectivity) test; assay type: biochemical; settings: vehicle 4×10^−5 M; pH 5.5, Z-FR-AFC
Experimental: as §1, §2, §3, §4, §5

Cathepsin H = molecular target: T1, Cathepsin H (Homo sapiens, UniProt P09668); assay: Differential cleavage (selectivity) test; assay type: biochemical; settings: vehicle 4×10^−5 M; pH 6.8, L-R-AFC
T1 sequence (P09668 98-335): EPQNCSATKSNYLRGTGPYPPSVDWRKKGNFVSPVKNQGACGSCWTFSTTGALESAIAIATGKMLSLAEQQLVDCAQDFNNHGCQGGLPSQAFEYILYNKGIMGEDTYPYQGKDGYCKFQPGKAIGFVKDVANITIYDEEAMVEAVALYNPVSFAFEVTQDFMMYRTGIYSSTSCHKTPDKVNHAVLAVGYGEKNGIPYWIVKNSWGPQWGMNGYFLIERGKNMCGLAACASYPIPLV
Experimental: as §1, §2, §3, §4, §5

Trypsin = assay: Differential cleavage (selectivity) test; assay type: biochemical, human; settings: vehicle 4×10^−5 M; pH 8.0, Z-R-AFC
Experimental: as §1, §2, §3, §4, §5

Taenia crassiceps cysts [3] = assay: Short-term prophylactic protection of BALB/c mice from cysticercosis infection; assay type: in vivo; settings: pre-injected two days, 10 T. crassiceps cysts/mouse, dosed daily four weeks, intraperitoneal; vs untreated controls
Experimental: FIG. 8. […] Each treated mouse was pre-injected intraperitoneally with inhibitor for two days. During treatment phase, each treated mouse received 1.48×10^−2 μg/μl of N2 daily for three weeks and every other day during the last week. Injections were carried out in 150 μl of dimethyl sulfoxide for each mouse. Both treated groups and positive controls were challenged intraperitoneally with 10 Taenia crassiceps cysts in 200 μl 0.15M PBS at the time of initial infection. After one month of infection, both groups were euthanized and cysts removed by washing with sterile 0.15M PBS. A minimum of two attached cysts were scored as multilobed (ML). […] (B) Graphically represents the effect of protease inhibitor treatment of BALB/c mice challenged with Taenia crassiceps cysts over a long-term period. Mice were divided into treated and untreated groups (5 mice/group).Each mouse in the treated group was pre-injected intraperitoneally with inhibitor for two days. […] Cysts were then counted by visual inspection. […]
Based upon the premise that the cyst wall cysteine protease may serve a critical finction to the life cycle of the Taenia cyst, we tested our most efficacious inhibitors, LLL-FMK and LLY-FMK (K-Pyr was used as a control), for their abilities to protect mice from cysticercosis infection. […] After one month, the mice were euthanized and the cysts counted. […]

Taenia crassiceps cysts [4] = assay: Scanning electron microscopy of surfaces of cysts removed from treated mice; assay type: in vivo
Source text: FIG. 9. Scanning electron microscopy of the surface of cysts removed from untreated mice versus cysts removed from treated mice. Magnifications are identical for both slides in each panel. panel A (4000×). […] No immune cells were seen on cysts removed from untreated mice. Panel B (25,000×). […] Microtriches in untreated cysts can be seen to be visibly longer. Visible anchors were also noted for the untreated cysts group, whereas these anchors were not observed in microtriches from treated cysts.
For example, we hypothesized that the cysteine protease was a key parasitic molecule to allow the cyst to evade the host immune response, by cleaving host antibodies. By inhibiting the Taenia cysteine protease with Z-LLY-FMK, we hypothesized that host immunoglobulin could now bind the parasites, and initiate immunological responses (e.g., complement via IgG2a) which would cause damage to the cyst wall. […] We identified macrophages, neutrophils, fibroblasts, and collagenous deposits on the cyst surfaces from treated mice, in comparison to their absence on cysts from untreated mice. General surface atrophy was also apparent. […] Breaks in the integrity of the cyst surface were also noted for the cysts removed from treated mice. […] Cysts removed from untreated mice were characterized by no immune cells, intact and longer microtriches, and homogeneity of the cyst surface.

Chain of Cathepsin L (P07711 114-333): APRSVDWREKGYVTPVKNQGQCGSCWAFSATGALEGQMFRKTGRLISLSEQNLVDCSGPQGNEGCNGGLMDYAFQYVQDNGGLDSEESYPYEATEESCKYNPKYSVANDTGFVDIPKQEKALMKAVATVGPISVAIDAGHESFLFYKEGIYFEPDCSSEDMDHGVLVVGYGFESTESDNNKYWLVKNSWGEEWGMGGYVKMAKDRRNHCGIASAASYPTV
Chain of Cathepsin D (P07339 65-412): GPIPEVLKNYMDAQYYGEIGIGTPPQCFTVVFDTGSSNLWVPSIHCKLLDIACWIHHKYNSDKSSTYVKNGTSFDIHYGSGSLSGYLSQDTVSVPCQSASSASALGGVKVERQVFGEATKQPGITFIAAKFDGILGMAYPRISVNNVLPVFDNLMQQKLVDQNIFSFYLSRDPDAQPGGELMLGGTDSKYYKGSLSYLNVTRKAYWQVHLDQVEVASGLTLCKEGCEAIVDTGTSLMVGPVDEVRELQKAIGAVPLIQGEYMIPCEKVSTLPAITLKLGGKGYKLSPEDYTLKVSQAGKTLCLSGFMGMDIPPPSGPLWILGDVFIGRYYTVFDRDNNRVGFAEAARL

| Compound | inhibition of cleavage of human IgG [1] | cleavage as substrate (Vmax) [2] | Percent inhibition of Cathepsin B (cysteine) (Cathepsin B) | Percent inhibition of Cathepsin D (aspartic) (Cathepsin D) | Percent inhibition of Cathepsin L (cysteine) (Cathepsin L) | Percent inhibition of Cathepsin H (cysteine) (Cathepsin H) | Percent inhibition of Trypsin (serine) (Trypsin) | further results |
| --- | --- | --- | --- | --- | --- | --- | --- | --- |
| CC(C)CC(NC(=O)CCC(=O)O)C(=O)NC(Cc1ccc(O)cc1)C(=O)Nc1ccc2c(C(F)(F)F)cc(=O)oc2c1 (stereo not drawn) [Suc-Leu-Tyr-AFC] (Suc-Leu-Tyr-{AFC}; configuration not given here) | ability to inhibit |  |  |  |  |  |  |  |
| CC(C)C[C@H](NC(=O)[C@H]1O[C@@H]1C(=O)O)C(=O)NCCCCN=C(N)N [E64] | Inhibition was noted |  |  |  |  |  |  |  |
| CC(C)C[C@H](NC(=O)OCc1ccccc1)C(=O)N[C@@H](CC(C)C)C(=O)N[C@@H](Cc1ccc(O)cc1)C(=O)Nc1ccc2c(C(F)(F)F)cc(=O)oc2c1 [Z-LLY-AFC, Z-Leu-Leu-Tyr-AFC] (Cbz-Leu-Leu-Tyr-{AFC}) |  | noncleavable | 0% | 0% | 0% | 0% | 0% |  |
| Leu-Phe-Ketoamide-Pyridyl [K-Pyr] |  |  |  |  |  |  |  | % Prophylactic protection of BALB/c mice (Taenia crassiceps cysts [3]): 40%; Immune cells observed by SEM on cyst surfaces (Taenia crassiceps cysts [4]): None; Immune cells observed by SEM on cyst surfaces (Taenia crassiceps cysts [4]; listed as K- Pyr): neither adherent immune cells nor damaged tegunent |
| CC(C)C[C@H](NC(=O)OCc1ccccc1)C(=O)N[C@@H](CC(C)C)C(=O)N[C@@H](CC(C)C)C(=O)Nc1ccc2c(C(F)(F)F)cc(=O)oc2c1 [Z-LLL-AFC, Z-Leu- Leu-Leu-AFC] (Cbz-Leu-Leu-Leu-{AFC}) |  | noncleavable | 0% | 0% | 0% | 0% | 0% |  |

— patent US20030077653A1, “Method for the identification of active site protease inactivators” (The University of Georgia Research Foundation, Inc., priority 2000, published 2003)
